# Measured values: PMC7108782, “Direct interaction of metastasis-inducing S100P protein with tubulin causes enhanced cell migration without changes in cell adhesion” (Biochemical Journal, 2020)
# No end group written: not given here.
# T1: S100P (Homo sapiens, UniProt P25815)
# T1 construct: made in house
# T1 sequence (P25815 1-95): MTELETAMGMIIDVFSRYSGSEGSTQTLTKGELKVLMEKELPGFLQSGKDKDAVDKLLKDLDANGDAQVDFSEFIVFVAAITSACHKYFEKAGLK
# T2: Recombinant S100P (UniProt P25815 1-95, 15N-labelled in the NMR experiments)
# T2 chain: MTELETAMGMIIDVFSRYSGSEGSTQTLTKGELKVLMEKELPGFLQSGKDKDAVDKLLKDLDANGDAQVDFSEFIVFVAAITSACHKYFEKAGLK
# Experiments:
# [1] = cited from earlier work; for Kd: ref [58], read-out: Kd for Ca2+ in absence of protein target
# Source text: Cell migration is a complicated biological process involving many disparate cellular machines and regulatory systems. The cytoskeleton is essential for cell migration and is composed of three major types of fibres, intermediate filaments, actomyosin filaments and MTs. The intermediate filaments mainly provide mechanical strength to cells, whilst actomyosin filaments directly provide forces for cell migration. The roles of MTs in cell migration are more complex. On the one hand, MTs are a major support to cell polarity and their assembly can provide force for directional mo ...
# tubulin = settings: cited from earlier work; for interaction with tubulin: ref [24]; for effect on MT assembly: ref [25]
# Source text: The individual S100 proteins have been reported to interact inter alia with either NM or with tubulin, although with different binding affinities. […] Decreasing S100A1 is able to increase tubulin levels and this change alters neurite organisation in […]. […] However, it is ...
# S100P = molecular target: T1, S100P; assay: Isothermal titration calorimetry (ITC) of tubulin peptides with S100P; assay type: binding; settings: for affinity for S100P (in words): NMR and ITC
# Method: Measurements were conducted using an ITC-200 instrument (Microcal) as previously described. ITC titrations were performed in 20 mM MES pH 6.1, 50 mM NaCl, 1.0 mM TCEP and 5 mM CaCl2 (for Ca^2+-form of S100P) at 25°C. Due to low solubility, peptide solutions at concentrations of 10–400 µM were placed in the cell and titrated with S100P at concentrations of 0.5–3 mM, depending on the peptide concentration. Data were integrated and fitted to a single site binding equation using Origin 7 software which was included with the ITC module (Malvern Microcal, Malvern, U.K.).
# Recombinant S100P [2] = molecular target: T2, Recombinant S100P; assay: SPR; competition: 20 µM peptide mixed with 1 µM S100P, applied to the α,β-tubulin-coated chip; extent of binding relative to S100P alone (100%)
# S100P - α,β-tubulin = assay: SPR inhibition of S100P binding to α,β-tubulin-coated chip by peptides; set-up: species or system human; settings: 20 µM peptide, 1 µM S100P
# Method: For SPR binding assays, α,β-tubulin proteins described earlier were immobilised on a carboxymethylated dextran surface of a CM5 chip using BS^3 for use in Biocore X100. Recombinant S100P produced as described previously was used as a ligand in different concentrations at 20, 50, 100, 200, 1000, 2000 nM for calculation of the equilibrium dissociation constant (Kd) from the association/dissociation rate constants and from the extent of binding near equilibrium (Supplementary Table S2), as described previously. To detect the effects of tubulin peptides on the interaction of tubulin, different concentrations of tagged and untagged peptides were mixed with 1 µM S100P first and the mixtures were then applied to the tubulin-coated chip. The relative changes in kinetics and binding extents with different peptides were calculated using software provided by the manufacturer.
# COS-7 S10 cells = assay: Boyden chamber cell migration, S100P-inducible COS-7; assay type: cell-based, monkey
# Source text: (§1) Cell migration rate (%) = M/G × 100.
# HeLa-A3 cells = assay: S100P-enhanced cell migration, HeLa-A3; assay type: cell-based, human; settings: HeLa-A3; 20 nM taxol or 5 µM colchicine, 24 h
# Source text: as §1
# MCF-7 cells = assay: Boyden chamber cell migration with MT regulators, MCF-7
# Rama 37 cells = assay: Boyden chamber cell migration with MT regulators, Rama 37; settings: 5 µM colchicine, 24 h
# COS-7 cells = assay: Boyden chamber cell migration, COS-7 parental; assay type: cell-based, monkey; settings: 5 µM colchicine, 24 h, COS-7
# Source text: as §1
# Rama 37-T25 cells = assay: S100P-enhanced cell migration, Rama 37-T25; assay type: cell-based, rat; settings: Rama 37-T25; 20 nM taxol or 5 µM colchicine, 24 h
# Source text: as §1
# HeLa cells = assay: Boyden chamber cell migration with MT regulators, HeLa; settings: 5 µM colchicine, 24 h
# [3] = test system: tubulin polymerisation in COS-7 S10 cells; assay: In vivo tubulin polymerisation assay, COS-7 / COS-7 S10; assay type: cell-based, monkey; settings: parental COS-7, 1 µg/ml doxycycline
# Method: (§2) HeLa and S100P-inducible HeLa, COS-7 and S100P-inducible COS-7 cells were routinely cultured with or without doxycycline (1 µg/ml) and treated with 33 µM nocodazole for 24 h to synchronise the cells. Then the nocodazole was washed away (First release) and the synchronised cells were cultured in normal medium for 4 h to allow them to complete cell division. The nocodazole was then added again for 4 h to dissociate all the MTs. After this time, nocodazole was again removed by extensive washings (Second release) and tubulin was allowed to polymerise in the interphase of the cell cycle for different times. The cells were treated with buffer (10 mM Tris–HCl, 150 mM KCl, pH 7.4, 2% (v/v) Triton X-100) and the Triton-X100-insoluble tubulins (representing the newly formed MTs) were solubilised in Sample Buffer and quantified by Western blotting. To test the effect of tubulin-derived peptides, 20 µM T-DIC, T-DLV, T-IMN and tag-peptide alone (Supplementary Table S3) in 0.25% (v/v) DMSO as solvent, as well as the solvent control 0.25% (v/v) DMSO were added immediately after the second release in Sample Buffer and quantified at the different time points by Western blotting.
# [4] = test system: tubulin polymerisation in HeLa-A19 cells; assay: In vivo tubulin polymerisation assay, HeLa / HeLa-A19; assay type: cell-based, human; settings: parental HeLa, 1 µg/ml doxycycline
# Method: as §2
# αβ-tubulin [5] = molecular target: αβ-tubulin (UniProt P68363); assay: SPR; αβ-tubulin immobilised on a CM5 chip, S100P in solution; 150 mM NaCl, 0.5 mM CaCl2, multiple cycles; Kd from the association and dissociation rate constants
# αβ-tubulin [6] = molecular target: αβ-tubulin (UniProt P68363); assay: SPR; αβ-tubulin immobilised on a CM5 chip (Biacore X100), S100P in solution; 150 mM NaCl, 0.5 mM CaCl2, single cycle; Kd from the association and dissociation rate constants
# αβ-tubulin [7] = molecular target: αβ-tubulin (UniProt P68363); assay: SPR; αβ-tubulin immobilised on a CM5 chip, S100P in solution; 500 mM NaCl (printed 500M), 0.5 mM CaCl2, multiple cycles; Kd from the association and dissociation rate constants
# αβ-tubulin [8] = molecular target: αβ-tubulin (UniProt P68363); assay: SPR; αβ-tubulin immobilised on a CM5 chip, S100P in solution; 300 mM NaCl (printed 300M), 0.5 mM CaCl2, multiple cycles; Kd from the association and dissociation rate constants
# αβ-tubulin [9] = molecular target: αβ-tubulin (UniProt P68363); assay: SPR; αβ-tubulin immobilised on a CM5 chip, S100P in solution; 300 mM NaCl (printed 300M), 0.5 mM CaCl2, multiple cycles; Kd from the extent of binding at or near equilibrium
# Recombinant S100P [10] = molecular target: T2, Recombinant S100P; assay: ITC
# Sequence of T-DIC, DIC peptide with the N-terminal 10 amino acid TAT-HA2 tag for cell entry (P04350 209-234 limits assumed): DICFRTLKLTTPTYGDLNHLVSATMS
molecule,measurement,setting,value
S100B: S100 protein,Kd,[1],> 1000 nM
same,interaction with tubulin,tubulin,can interact with tubulin in a calcium-dependent manner
same,effect on MT assembly,tubulin,disrupt the assembly of MT
VNAAIATIKTKRTIQFVDWCPTGFKVGINY [VNA],Kd,"S100P; ITC, 25°C, 20 mM MES pH 6.1, 50 mM NaCl, 1.0 mM TCEP, 5 mM CaCl2, single site fit, peptide in cell, S100P titrated",62000 nM
same,affinity for S100P (in words),S100P,relatively weak
"T-DIC, DIC peptide with the N-terminal 10 amino acid TAT-HA2 tag for cell entry","percent reduction of the extent of binding of 1 µM S100P to α,β-tubulin at 20 µM peptide",Recombinant S100P [2],50%
"T-DLV, DLV peptide with the N-terminal 10 amino acid TAT-HA2 tag for cell entry","percent reduction of the extent of binding of 1 µM S100P to α,β-tubulin at 20 µM peptide",Recombinant S100P [2],50%
"DIC peptide, the 26mer starting with DIC from β-tubulin","percent inhibition of the extent of binding of 1 µM S100P to α,β-tubulin at 20 µM peptide",Recombinant S100P [2],> 50%
S100A4: S100 protein,change of Ca2+ Kd in complex with NMIIA fragments,"[1]; ITC, preformed S100A4/NMIIA fragments, ref [57]",reduced by several orders of magnitude
same,Kd,[1],> 1000 nM
"RRRQRRKKRG [Tag, 10 amino acid TAT-HA2 tag for cell entry, reference compound]","effect on extent of binding of S100P to α,β-tubulin (in words)","S100P - α,β-tubulin",showed no effect in the binding assay
same,S100P-induced fold increase in migration in the presence of peptide,"COS-7 S10 cells; 20 µM tagged peptide, 8 h, doxycycline-induced COS-7 S10 vs uninduced",3.5 fold
COc1cc2c(c(OC)c1OC)-c1ccc(OC)c(=O)cc1[C@@H](NC(C)=O)CC2 [colchicine],effect on S100P-enhanced migration,HeLa-A3 cells,suppressed
same,effect of colchicine on migration (in words),"MCF-7 cells; MCF-7, 5 µM time course, dose response 24 h",increase dramatically cell migration in a time and dose-dependent manner
same,concentration abolishing the enhancement of migration,"MCF-7 cells; MCF-7, colchicine",> 10 µM
same,incubation time abolishing the enhancement of migration,"MCF-7 cells; MCF-7, colchicine",> 24 h
same,concentration range enhancing migration,"MCF-7 cells; MCF-7, colchicine, Figure 6C",1 to 10 µM
same,reduction of migration by colchicine,Rama 37 cells,30–70%
same,effect on S100P-enhanced migration,"COS-7 S10 cells; COS-7 S10, 20 nM taxol or 5 µM colchicine, 24 h",suppressed
same,effect on S100P's stimulation of migration,COS-7 S10 cells; taxol to stabilise MTs or colchicine to dissociate MTs (abstract),abolished
same,reduction of migration by colchicine,COS-7 cells,30–70%
same,effect on S100P-enhanced migration,Rama 37-T25 cells,suppressed
same,reduction of migration by colchicine,HeLa cells,30–70%
"C[C@H]1c2cccc(O)c2C(=O)C2=C(O)[C@]3(O)C(=O)C(C(N)=O)=C(O)[C@@H](N(C)C)[C@@H]3[C@@H](O)[C@@H]21 [doxycycline, reference compound]","effect of doxycycline on tubulin polymerisation, parental cells",[3],no significant differences
same,"effect of doxycycline on tubulin polymerisation, parental cells",[4],no significant differences
IMNTFSVVPSPKVSDTVVEPYNATL-SVH,"effect on extent of binding of S100P to α,β-tubulin (in words)","S100P - α,β-tubulin",showed no such effect
same,affinity for S100P (in words),S100P,very weak or nonbinder
"S100A1: S100 protein (protein, UniProt P23297 1-94, looked up) Protein S100-A1: MGSELETAMETLINVFHAHSGKEGDKYKLSKKELKELLQTELSGFLDAQKDVDAVDKVMKELDENGDGEVDFQEYVVLVAALTVACNNFFWENS",interaction with tubulin,tubulin,can interact with tubulin in a calcium-dependent manner
same,effect on MT assembly,tubulin,disrupt the assembly of MT
S100P (natural protein) MTELETAMGMIIDVFSRYSGSEGSTQTLTKGELKVLMEKELPGFLQSGKDKDAVDKLLKDLDANGDAQVDFSEFIVFVAAITSACHKYFEKAGLK,Kd,αβ-tubulin [5],210 nM
same,Kd,αβ-tubulin [6],120 nM
same,Kd,αβ-tubulin [7],8300 nM
same,Kd,αβ-tubulin [8],890 nM
same,Kd,αβ-tubulin [9],1100 nM
"DLVLDRIRKLADQCTGLQGFLVFHSFGGGT [DLV peptide, the 30mer starting with DLV from α-tubulin]","percent inhibition of the extent of binding of 1 µM S100P to α,β-tubulin at 20 µM peptide",Recombinant S100P [2],> 50%
same,Kd,Recombinant S100P [10],< 10000 nM
"S100A9/A8: S100A9/A8 (MRP14/MRP8) complex (protein, UniProt P06702 1-114; P05109 1-93, looked up) Protein S100-A9: MTCKMSQLERNIETIINTFHQYSVKLGHPDTLNQGEFKELVRKDLQNFLKKENKNEKVIEHIMEDLDTNADKQLSFEEFIMLMARLTWASHEKMHEGDEGPGHHHKPGLGEGTP Protein S100-A8: MLTELEKALNSIIDVYHKYSLIKGNFHAVYRDDLKKLLETECPQYIRKKGADVWFKELDINTDGAVNFQEFLILVIKMGVAAHKKSHEESHKE",effect on tubulin polymerisation in vivo,tubulin; ref [27],promotes tubulin polymerisation in vivo
